Assay results as given in patent US7498304B2, “Angiogenesis-modulating compositions and uses” (Curis, Inc., priority 2002, dated 2009).

Legend:
C3H10T1/2 cells = assay: C3H10T1/2 alkaline phosphatase induction assay; type: cell-based, mouse
Source text: Persons having ordinary skill in the art can easily test any putative hedgehog antagonist for these properties. In particular, the mouse embryonic fibroblast line C3H10T1/2 is a mesenchymal stem cell line that is hedgehog responsive. Hedgehog treatment of the cells causes an upregulation of gli-1 and patched-1 (known indicators of hedgehog dependent signaling) and also causes induction of alkaline phosphatase activity, an indicator that the cells have differentiated down the chondrocyte/ bone osteoblast lineage. Several hedgehog variants are unable to elicit a hedgehog-dependent response on C3H10T1/2 cells, but they competed with mature hedgehog for function and therefore serve as functional antagonists. […]
The mouse embryonic fibroblast line C3H10T1/2 is a mesenchymal stem cell line that, under defined conditions, can differentiate into adipocytes, chondrocytes, and bone osteoblasts (Taylor, S. M., and Jones, P. A., Cell 17: 771-779 (1979) and Wang, E. A., et al., Growth Factors 9: 57-71 (1993)). […] Shh has a similar effect on C3H10T1/2 cells (Kinto, N. et al., FEBS Letts. 404: 319-323 (1997)) and we routinely use the alkaline phosphatase induction by Shh as a quantitative measure of its in vitro potency. Shh treatment also produces a dose-dependent increase in gli-1 and ptc-1 expression, which can be readily detected by a PCR-based analysis.

patched-1 = target: T1, patched-1 (Homo sapiens, UniProt Q13635); assay: binding to the hedgehog receptor patched-1; details: compared with mature Shh
T1 sequence (Q13635 1-1447): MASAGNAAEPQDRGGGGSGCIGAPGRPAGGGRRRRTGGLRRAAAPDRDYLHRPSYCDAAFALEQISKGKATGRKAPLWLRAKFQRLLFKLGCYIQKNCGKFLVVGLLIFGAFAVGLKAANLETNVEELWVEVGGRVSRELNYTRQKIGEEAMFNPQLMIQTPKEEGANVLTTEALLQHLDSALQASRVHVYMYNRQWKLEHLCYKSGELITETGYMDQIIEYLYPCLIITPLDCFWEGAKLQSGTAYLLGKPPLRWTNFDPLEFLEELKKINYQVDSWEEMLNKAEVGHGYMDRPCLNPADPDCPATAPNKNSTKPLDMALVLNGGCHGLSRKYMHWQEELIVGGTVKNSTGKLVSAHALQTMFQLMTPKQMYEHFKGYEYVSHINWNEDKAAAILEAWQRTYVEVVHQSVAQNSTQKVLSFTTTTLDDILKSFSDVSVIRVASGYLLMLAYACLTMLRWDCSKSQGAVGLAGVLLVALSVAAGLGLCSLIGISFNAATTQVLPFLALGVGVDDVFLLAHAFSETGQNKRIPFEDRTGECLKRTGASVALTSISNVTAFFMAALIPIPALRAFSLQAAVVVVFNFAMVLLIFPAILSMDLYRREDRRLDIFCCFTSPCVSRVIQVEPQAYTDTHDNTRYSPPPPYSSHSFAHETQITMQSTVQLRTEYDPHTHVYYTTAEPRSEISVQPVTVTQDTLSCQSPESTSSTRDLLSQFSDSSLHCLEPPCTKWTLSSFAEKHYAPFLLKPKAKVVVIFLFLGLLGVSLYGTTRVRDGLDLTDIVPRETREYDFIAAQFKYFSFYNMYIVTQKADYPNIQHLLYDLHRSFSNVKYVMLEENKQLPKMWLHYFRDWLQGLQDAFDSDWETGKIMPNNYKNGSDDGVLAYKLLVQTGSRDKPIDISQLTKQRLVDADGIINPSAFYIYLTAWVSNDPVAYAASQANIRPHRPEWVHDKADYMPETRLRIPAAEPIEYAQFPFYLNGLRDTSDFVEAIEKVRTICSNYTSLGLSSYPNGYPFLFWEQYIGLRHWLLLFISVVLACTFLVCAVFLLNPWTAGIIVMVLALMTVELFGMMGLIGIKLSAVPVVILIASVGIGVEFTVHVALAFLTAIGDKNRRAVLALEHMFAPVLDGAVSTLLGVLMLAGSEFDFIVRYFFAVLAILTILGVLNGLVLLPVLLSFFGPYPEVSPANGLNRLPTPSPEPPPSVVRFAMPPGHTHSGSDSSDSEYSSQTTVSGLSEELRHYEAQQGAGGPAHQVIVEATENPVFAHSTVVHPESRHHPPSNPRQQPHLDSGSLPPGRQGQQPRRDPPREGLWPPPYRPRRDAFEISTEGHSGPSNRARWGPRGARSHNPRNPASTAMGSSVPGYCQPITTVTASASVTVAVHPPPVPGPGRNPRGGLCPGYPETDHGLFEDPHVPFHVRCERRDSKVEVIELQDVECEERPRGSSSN

matrigel plug = assay: subcutaneous matrigel plug assay of angiogenesis; details: mouse, in vivo
Method: Hedgehog was also found to induce angiogenesis in the subcutaneous matrigel plug assay (Passaniti et al., 1992). Doses of 2 to 10 ug/ml of octyl, myr, PEG II or II-Fc fusion forms of human recombinant Shh were prepared in 0.5 ml of matrigel containing 40 IU/ml of heparin and injected subcutaneously into C57BL6 mice (3-5 mo. old, 5 mice/treatment group). The mice were sacrificed between 6-7 days after injection and the matrigel plug was dissected for visual inspection and histological analysis. […] The results of the matrigel plug support the finding that hedgehog can induce angiogenesis in vivo.

| ability to bind patched-1 (patched-1) | Substance | block of AP induction by mature Shh (C3H10T1/2 cells) | implants with significant hemoglobin content (matrigel plug) |
| --- | --- | --- | --- |
| indistinguishable from mature Shh | Shh in which the N-terminal cysteine is replaced with a serine residue: Shh mutant, N-terminal cysteine replaced with serine; functional antagonist | blocks AP induction | – |
| – | bFGF: Recombinant human bFGF, a known angiogenic protein | – | 3 of 5 |
